The text below walks through data of patent US7015309B1 (The Wistar Institute of Anatomy and Biology, priority 1999, dated 2006).

A short description of data set [1]: 25% aqueous pooled human serum (Sigma), human 1, approximately 1 year old. Particulars: 37° C., up to 8 hours.
The nature of data set [2]: 25% aqueous pooled human serum (Sigma), human 2, approximately 1 month old. Particulars: 37° C., up to 8 hours.
Data set [3] is described as follows: 25% aqueous pooled mouse serum (Sigma). Particulars: 37° C., up to 8 hours.
Data set [4] concerns Bacillus megaterium. As for the experimental part: (§1) Growth inhibition assays were performed using the peptides of Example 1 and the Gram positive microorganisms Micrococcus luteus and Bacillus megaterium, and the Gram negative microorganisms, Escherichia coli D22, Agrobacterium tumefaciens, and Salmonella typhimurium. Anti-bacterial assays were performed in sterilized 96-well plates (Nunc F96 microtiter plates) with a final volume of 100 μl as described in Bulet (1996), cited above. Briefly, 90 μl of a suspension of a midlogarithmic phase bacterial culture at an initial 600 nm UV absorbence of 0.001 in Luria-Bertani rich nutrient medium was added to 10 μl of serially diluted peptides in sterilized water. The final peptide concentrations ranged between 0.15 and 80 μM. The plates were incubated at 30° C. for 24 hours with gentle shaking, and the growth inhibition was measured by recording the increase of the UV absorbence at 600 nm on an SLT Labinstruments 400 ATC microplate reader. The experiments were conducted over a 7-month period.

The test system of data set [5] is Salmonella typhimurium. As for the experimental part: as §1
For data set [6], the system named is Agrobacterium tumefaciens. As to the method:
as §1

Data set [7] concerns Escherichia coli D22. Particulars: read-out: IC50 in μM against Escherichia coli D22; 30° C., 24 hours; for Peptide 22 original assay (a). As for the experimental part: as §1
The test system of data set [8] is Micrococcus luteus. As to the method:
as §1

The conditions of data set [9]: 25% sera, data not shown.
For data set [10] the following is noted: 45-minute digestion.
Protocol: (§2) Owing to the fact that the use of diluted serum increases peptide recovery as well as retards the reaction kinetics to a manageable rate, the experiments were conducted using 25% aqueous sera.
(§3) For serum stability studies, 10 μl of an aqueous peptide stock solution containing about 0.8 mg/ml peptide was added to 200 μl 25% aqueous pooled mouse or human serum (Sigma, St. Louis, Mo.), according to the process described in M. F. Powell et al, Pharmacol Res, 10: 1268–1273 (1993). The peptide-serum mixture was thermostated at 37° C. After 0 minutes, 45 minutes, 2 hours and 4 hours, three samples of each peptide were taken and precipitated by the addition of 40 μl 15% aqueous trichloroacetic acid. The samples were stored at 4° C. for 20 minutes and centrifuged. The peptides and some remaining serum proteins were recovered in the supernatant after the trichloroacetic acid precipitation. The supernatants were immediately frozen on dry-ice and 220 μl of each were analyzed on RP-HPLC. A mouse serum and two different batches of the same SIGMA catalog number of human sera (human 1, approximately 1 year old, and human 2, approximately 1 month old) were also used.
(§4) The lyophilized samples were redissolved in 0.1 aqueous TFA and submitted for matrix assisted laser desorption/ionization (MALDI-MS).
(§5) The missing residues are indicated (e.g—C2 means that the C-terminal two residues are cleaved off). […] In Table 4, the relative amounts of the degradation products are estimated based on the MALDI-MS peak heights. 0=not detected; 1=very weak (below 5000), 2=weak (5–10000), 3=medium (10–15000), 4=strong (15000-uncleaved molecular ion at 25–30000), 5=very strong (above uncleaved molecular ion).
For data set [11] the following is noted: mouse serum, 45-minute digestion, MALDI-MS peak height.
Protocol: as §2, §3, §4, §5
Setting [12] is: read-out: IC50 in μM against Bacillus megaterium, 30° C., 24 hours, for Peptide 22 original assay (a).
Setting [13] is: read-out: IC50 in μM against Salmonella typhimurium, 30° C., 24 hours, for Peptide 22 original assay (a).
[14] abbreviates: read-out: IC50 in μM against Agrobacterium tumefaciens, 30° C., 24 hours, for Peptide 22 original assay (a).
The mark [15] stands for this setting: human 1 serum (approximately 1 year old).
Setting [16] is: human 2 serum (approximately 1 month old).
The mark [17] stands for this setting: read-out: IC50 in μM against Micrococcus luteus, 30° C., 24 hours, for Peptide 22 original assay (a).

“Also recorded” adds a separate entry of the source. Read-outs that look alike come from different tables or passages of the source. Non-standard residues stand in square brackets, D forms with d. Residues, ends and D or L forms follow the SMILES beside them. No end group written: not given here. ξ: configuration not given here. Ac6c = NC1(C(=O)O)CCCCC1; Dap = NC[C@H](N)C(=O)O; ξDap = NCC(N)C(=O)O Some results are limits rather than exact numbers.

On to “1-aminocyclo-hexane carboxylic acid (Chex)-Pyrrhocoricin-β-acetyl-2,3-diamino propionic amide [Dap(Ac)]”, for which, in data set [1], the cleaved bond entry is listed as “Asn18-Arg19, 45-minute; also recorded: Ser5-Tyr6, 45-minute”; the fragment found result is reported as “−C3, 45-minute; also recorded: −N5, C2, 45-minute”; the not cleaved result is on record as “−C1 not detected (0) after 45-minute digestion”. In addition, in data set [2], the cleaved bond result was “Asn18-Arg19, 45-minute; also recorded: Ser5-Tyr6, 45-minute”; the fragment found entry is reported as “−N5, C2, 45-minute”; the not cleaved result is given as “−C1 not detected (0) after 45-minute digestion”. Also, in data set [3], the cleaved bond entry is reported as “Asn18-Arg19, 45-minute; also recorded: Ser5-Tyr6, 45-minute” and the not cleaved result was “−C1 not detected (0) after 45-minute digestion”.
The IC50 is the concentration that gives 50% inhibition. As to `CC[C@@H](C)[C@@H](NC(=O)[C@H]1CCCN1C(=O)[C@@H](CCCNC(=N)N)NC(=O)[C@H]1CCCN1C(=O)[C@H]1CCCN1C(=O)[C@H](NC(=O)[C@H]1CCCN1C(=O)[C@@H](CCCNC(=N)N)NC(=O)[C@H]1CCCN1C(=O)[C@@H](CC(C)C)NC(=O)[C@@H](Cc1ccc(O)cc1)NC(=O)[C@@H](CO)NC(=O)CNC(=O)[C@@H](CCCCN)NC(=O)[C@@H](CC(=O)O)NC(=O)[C@H](N)C(C)C)[C@H](C)O)C(=O)N[C@H](Cc1ccc(O)cc1)C(=O)N[C@H](CC(N)=O)C(=O)N[C@H](CCCNC(=N)N)C(=O)N[C@H](CC(N)=O)C(N)=O` [Peptide 13] (H-[dV][dD][dK]G[dS][dY][dL][dP][dR][dP][dT][dP][dP][dR][dP][dI][dY][dN][dR][dN]-NH2; N-terminus and C-terminus assumed), the IC50 is more than 80 µM in data set [4] (setting [12]); more than 80 µM in [5] (setting [13]); more than 80 µM in data set [6] (setting [14]); more than 80 µM in data set [7]; 40 µM in data set [8] (24 h).
Consider `CC[C@H](C)[C@H](NC(=O)[C@@H]1CCCN1C(=O)[C@H](CCCNC(=N)N)NC(=O)[C@@H]1CCCN1C(=O)[C@@H]1CCCN1C(=O)[C@@H](NC(=O)[C@@H]1CCCN1C(=O)[C@H](CCCNC(=N)N)NC(=O)[C@@H]1CCCN1C(=O)[C@H](CC(C)C)NC(=O)[C@H](Cc1ccc(O)cc1)NC(=O)[C@H](CO)NC(=O)CNC(=O)[C@H](CCCCN)NC(=O)[C@H](CC(=O)O)NC(=O)[C@@H](NC(=O)[C@H](CCCNC(=N)N)NC(C)=O)C(C)C)[C@@H](C)O)C(=O)N[C@@H](Cc1ccc(O)cc1)C(=O)N[C@@H](CC(N)=O)C(=O)N[C@@H](CCCNC(=N)N)C(=O)N[C@@H](CNC(C)=O)C(N)=O` [Peptide 22] (Ac-RVDKGSYLPRPTPPRPIYNR[Dap](Ac)-NH2), for which the IC50 was determined as 80 µM in data set [4] (Bacillus); 40 µM in data set [4] (Bacillus, 24 h); 2.5 µM in [5] (murium); 2.5 µM in [5] (murium, 24 h); 0.6 µM in data set [6]; 2.5 µM in data set [6] (24 h). For the same compound, the half-maximal inhibitory concentration (IC50) in data set [8] and in data set [8] (24 h) was 10 µM throughout. The “degradation rate compared with other peptides (in words)” value in data set [9] is reported as “degrades considerably faster than either Peptide 1 or Peptide 21”. Further, the “Degradation product −C1, relative amount” value in [10] (setting [15]), in [10] (setting [16]) and in data set [11] was 0 each time. The “Degradation product −C2, relative amount” value in data set [10] (setting [15]) is 5; in [10] (setting [16]) it was 5; in [11] it was 2 (2=weak (5–10000)). Moreover, the “Degradation product −C3, relative amount” value in data set [10] (setting [15]) is 3 (3=medium (10–15000)); in data set [10] (setting [16]) it was 0; in data set [11], 0. In addition, the “Degradation product −C6, relative amount” value in [10] (setting [15]), in data set [10] (setting [16]) and in [11] was 0 in each case. Besides, the figures for the “Degradation product −N3, C2, relative amount” value in [10] (setting [15]), in data set [10] (setting [16]) and in data set [11] were 1 (1=very weak (below 5000)), 0 and 0, respectively. In addition, the “Degradation product −N3, relative amount” value in data set [10] (setting [15]) is given as 2 (2=weak (5–10000)); in data set [10] (setting [16]), 2 (2=weak (5–10000)); in data set [11] it was 0. Further, the “Degradation product −N5, C2, relative amount” value in [10] (setting [15]) is reported as 2 (2=weak (5–10000)); in data set [10] (setting [16]), 0; in data set [11] it was 0. For the same compound, the figures for the “Degradation product −N5, relative amount” value in [10] (setting [15]), in data set [10] (setting [16]) and in data set [11] were 3 (3=medium (10–15000)), 1 (1=very weak (below 5000)) and 0, respectively.
Turning to `CC[C@H](C)[C@H](NC(=O)[C@@H]1CCCN1C(=O)[C@H](CCCNC(=N)N)NC(=O)[C@@H]1CCCN1C(=O)[C@@H]1CCCN1C(=O)[C@@H](NC(=O)[C@@H]1CCCN1C(=O)[C@H](CCCNC(=N)N)NC(=O)[C@@H]1CCCN1C(=O)[C@H](CC(C)C)NC(=O)[C@H](Cc1ccccc1)NC(=O)[C@H](C)NC(=O)CNC(=O)[C@H](CCCCN)NC(=O)[C@H](CC(=O)O)NC(=O)C1(N)CCCCC1)[C@@H](C)O)C(=O)N[C@@H](Cc1ccc(O)cc1)C(=O)N[C@@H](CC(N)=O)C(=O)N[C@@H](CCCNC(=N)N)C(=O)NC(CNC(C)=O)C(N)=O` (stereo partly shown) [Peptide 23] (H-[Ac6c]DKGAFLPRPTPPRPIYNR[ξDap](Ac)-NH2), the IC50 worked out at 40 µM in data set [4] (Bacillus, 24 h); 20 µM in data set [7]; 5 µM in data set [8] (24 h).
Take PTPPRPIYNRN [Peptide 15]: the IC50 in data set [4] (setting [12]), in data set [5] (setting [13]), in [6] (setting [14]), in [7] and in data set [8] (setting [17]) was more than 80 µM in each case.
As for VDKGSYLPR [Peptide 14], the half-maximal inhibitory concentration (IC50) in [4] (setting [12]), in data set [5] (setting [13]), in data set [6] (setting [14]), in data set [7] and in data set [8] (setting [17]) was more than 80 µM each time.
On to VDKGSYLPRPTPPRPIYN [Peptide 25], for which the IC50 in data set [4] (setting [12]), in [5] (setting [13]), in data set [6] (setting [14]), in data set [7] and in data set [8] (setting [17]) was more than 80 µM each time.
For the compound VDKGSYLPRPTPPRPIYNRN, the cleaved bond result in [1] is recorded as “Arg19-Asn20, first_seen, 45 minute; also recorded: Asn18-Arg19, 45-minute; also recorded: Ser5-Tyr6, 45-minute”; in data set [2], “Arg19-Asn20, first_seen, 45 minute; also recorded: Asn18-Arg19, 45-minute”; in data set [3], “Arg19-Asn20, first_seen, 45 minute; also recorded: Asn18-Arg19, 45-minute”. For the same compound, the fragment found entry in [1] is listed as “−C3, 45-minute; also recorded: −C6, 45-minute”.
With “VDKGSYLPRPTPPRPIYNRN [Peptide 2, reference compound]”, the IC50 in [4] (setting [12]) is 40 µM; in data set [5] (setting [13]), 2.5 µM; in data set [6] (setting [14]), 0.3 µM; in data set [7] it was 0.3 µM; in data set [8] (setting [17]) it was more than 80 µM.
